These compounds were tested on Rattus norvegicus (assay: Anti-inflammatory activity was determined by carangeenan-induced rat paw edema test in albino rats).
Assay type: functional
Design: concentration or dose not given beside the values

SMILES	Inhibition
O=C(O)CC1=C(c2ccc(Cl)cc2)N=C(S)NC1c1ccc(Cl)cc1 (stereo not drawn)	25%
Cc1ccc(C2=C(CC(=O)O)C(c3ccc(Cl)cc3)NC(S)=N2)cc1 (stereo not drawn)	22%
Cc1ccc(C2=C(CC(=O)O)C(c3ccccc3)NC(S)=N2)cc1 (stereo not drawn)	28%
O=C(O)CC1=C(c2ccc(Cl)cc2)N=C(S)NC1c1cccnc1 (stereo not drawn)	11%
O=C(O)CC1=C(c2ccc(Cl)cc2)N=C(S)NC1c1ccco1 (stereo not drawn)	9%
Cc1ccc(C2=C(CC(=O)O)C(c3cccs3)NC(S)=N2)cc1 (stereo not drawn)	10%
COc1ccc(C2NC(S)=NC(c3ccc(C)cc3)=C2CC(=O)O)cc1 (stereo not drawn)	33%
O=C(O)CC1=C(c2ccc(Cl)cc2)N=C(S)NC1c1cccs1 (stereo not drawn)	16%
O=C(O)CC1=C(c2ccccc2)N=C(S)NC1c1ccco1 (stereo not drawn)	19%
COc1ccc(C2NC(S)=NC(c3ccccc3)=C2CC(=O)O)cc1 (stereo not drawn)	32%
O=C(O)CC1=C(c2ccccc2)N=C(S)NC1c1ccc(Cl)cc1 (stereo not drawn)	30%
Cc1ccc(C2=C(CC(=O)O)C(c3cccnc3)NC(S)=N2)cc1 (stereo not drawn)	7%
O=C(O)CC1=C(c2ccc(Cl)cc2)N=C(S)NC1c1ccccc1 (stereo not drawn)	20%
COc1ccc(C2NC(S)=NC(c3ccc(Cl)cc3)=C2CC(=O)O)cc1 (stereo not drawn)	35%
O=C(O)CC1=C(c2ccccc2)N=C(S)NC1c1cccnc1 (stereo not drawn)	15%
Cc1ccc(C2=C(CC(=O)O)C(c3ccco3)NC(S)=N2)cc1 (stereo not drawn)	11%
O=C(O)CC1=C(c2ccccc2)N=C(S)NC1c1cccs1 (stereo not drawn)	21%
O=C(O)CC1=C(c2ccccc2)N=C(S)NC1c1ccccc1 (stereo not drawn)	17%

From ChEMBL document CHEMBL1147496, “Synthesis and anti-inflammatory activity of some [4,6-(4-substituted aryl)-2-thioxo-1,2,3,4-tetrahydro-pyrimidin-5-yl]-acetic acid derivatives” (2004)
